Molecules are shown by their SMILES. Substitutions are numbered along the chain they refer to.

Assay [1] concerns IEC6 cells. Nature of the assay: Cell viability assay IEC6. The assay is classed as cell-based. The note with it: Rattus norvegicus, IEC-6, 144 h; 6 days, CellTiterGlo. The procedure: (§1) Cell viability assay: LNCap, 22Rv1, MCF7, MDAMB361, T47D, and IEC6 cells were seeded at a density of 500-2000 cells/well in 96 well plates, and a ‘T0’ (timepoint 0) was included along with the assay plate. The plates were then incubated at 37° C., 5% CO2 in a cell culture incubator overnight. On the next day, the ‘T0’ plate was assayed using CellTiterGlo (Promega, Inc) according to the manufacturer's instructions. The appropriate compounds were diluted in DMSO and added to the assay plate (final DMSO concentration of 0.1-0.2%) on the next day. The assay plates were incubated for 6 days at 37° C., 5% CO2. After the incubation period, the plates were assayed using CellTiterGlo (Promega, Inc) according to the manufacturer's instructions and luminescence was read on the EnVision plate reader. Inhibition of the tested compounds was determined by the following formula: Inhibition rate (%)=(1−(RLU compound−RLU day0)/(RLU control−RLU day0))*100%. GraphPadPrism was used to analyze the data and determine GI50/IC50 values.

The test system of assay [2] is 22Rv1 cells. Nature of the assay: Cell viability assay 22Rv1. The assay is classed as cell-based. Particulars: Homo sapiens, 22Rv1, 144 h; 6 days, CellTiterGlo. The protocol: as §1
For orientation: In ATP-based viability assays light output follows the ATP content of the culture.

Assay [3] has as its system LNCap cells. As to the kind of experiment: Cell viability assay LNCap. The assay is classed as cell-based. The note with it: Homo sapiens, 144 h, 6 days, CellTiterGlo. The protocol:
as §1

Assay [4] concerns the target T1, full-length androgen receptor (HEK293 cells stably expressing) (Homo sapiens, UniProt P10275).
T1 construct: HEK293 cells stably expressing the full-length androgen receptor were seeded; expressed in transfected cells
T1 sequence (P10275 1-920): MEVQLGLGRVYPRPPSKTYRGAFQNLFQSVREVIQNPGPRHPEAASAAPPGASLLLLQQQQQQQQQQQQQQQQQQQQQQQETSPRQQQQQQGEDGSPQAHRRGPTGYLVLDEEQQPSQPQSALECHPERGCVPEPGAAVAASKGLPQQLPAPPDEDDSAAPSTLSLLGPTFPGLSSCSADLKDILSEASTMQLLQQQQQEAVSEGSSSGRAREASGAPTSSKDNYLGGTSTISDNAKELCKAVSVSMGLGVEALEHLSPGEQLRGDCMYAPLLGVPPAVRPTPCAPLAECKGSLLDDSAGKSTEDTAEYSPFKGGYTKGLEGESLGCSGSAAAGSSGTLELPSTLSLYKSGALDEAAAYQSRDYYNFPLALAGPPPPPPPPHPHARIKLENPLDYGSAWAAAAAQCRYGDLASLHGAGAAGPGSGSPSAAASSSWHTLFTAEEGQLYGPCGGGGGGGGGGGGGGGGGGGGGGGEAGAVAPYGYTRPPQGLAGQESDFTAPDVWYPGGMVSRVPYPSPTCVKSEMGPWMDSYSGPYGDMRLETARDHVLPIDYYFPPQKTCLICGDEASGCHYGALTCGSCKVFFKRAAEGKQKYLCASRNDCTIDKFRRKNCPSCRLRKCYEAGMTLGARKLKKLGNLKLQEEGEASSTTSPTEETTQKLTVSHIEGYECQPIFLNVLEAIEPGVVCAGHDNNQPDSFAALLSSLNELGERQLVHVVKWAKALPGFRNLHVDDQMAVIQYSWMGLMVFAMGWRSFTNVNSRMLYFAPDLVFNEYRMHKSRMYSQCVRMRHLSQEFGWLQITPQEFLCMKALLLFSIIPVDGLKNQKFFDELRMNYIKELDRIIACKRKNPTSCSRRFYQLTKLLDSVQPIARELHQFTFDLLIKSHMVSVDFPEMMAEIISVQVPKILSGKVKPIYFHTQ
As to the kind of experiment: AR antagonism assay. The assay is classed as cell-based. The note with it: testosterone 1 nM, 20 h, Steady-glo. The procedure:
AR antagonism assay: To evaluate AR antagonist activity, test compound was added to the assay plate (top dose 10 μM, 3 fold serial dilution, 10 point dose response). HEK293 cells stably expressing the full-length androgen receptor were seeded at a density of 20000 cells/well in the assay plate. The assay plate was then incubated at room temperature for 10 minutes and at 37° C., 5% CO2 for 20 minutes. Testosterone is added to the assay plate at 1 nM final concentration and the assay plate incubated at 37° C., 5% CO2 for 20 h. After the incubation period, Steady-glo was added to the assay plate and mixed at room temperature for 20 minutes on an orbital shaker, before reading out on the EnVision plate reader.

Assay [5] deals with T2, AR (cytosol from LnCaP cells) (Homo sapiens, UniProt P10275, T878A).
T2 construct: endogenous in cells; host or cells: LNCaP cytosol
T2 sequence (P10275 1-920 T878A): T1 sequence (P10275 1-920) with T878A
As to the kind of experiment: AR binding assay. The note with it: 3H-R1881 1 nM, 4° C. 24 hrs. The procedure:
AR binding assay: To assess AR binding, test compound (top dose 10 μM, 4 fold serial dilution, 8 point dose response) and control (progesterone) were transferred to the assay plate. Cytosol from LnCaP cells was added to the plate, followed by addition of radiolabeled ^3H-R1881 at a final concentration of 1 nM. The plate was sealed, and the reaction was incubated at 300 rpm at 4° C. for 24 hrs. Radioligand absorption buffer (10 mM Tris-HCl, pH 7.4; 1.5 mM EDTA; 1 mM DTT; 0.25% charcoal; 0.0025% dextran) was then added to the plate, mixed, and incubated at 4° C. for 15 minutes. The plate was then centrifuged at 3000 rpm for 30 minutes at 4° C. The supernatant was transferred to the scint-tube and Tri-carb was used for scintillation counting.

One may read the IC50 as the concentration at which inhibition is half-maximal. A high value points to a need for much substance. In general, GI50 refers to the concentration at which growth is held to half of that of the control. Higher therefore signals lower sensitivity of the cells. Regarding `CCc1cc2ncc(CN3CCN(c4ccc(-c5nnc([C@H]6[C@H](C)OC(=O)N6c6ccc(C#N)c(Cl)c6)o5)cc4)CC3)cc2[nH]c1=O` [Compound 65, 2-Chloro-4-((4R,5S)-4-(5-(4-(4-((7-ethyl-6-oxo-5,6-dihydro-1,5-naphthyridin-3-yl)methyl)-piperazin-1-yl)phenyl)-1,3,4-oxadiazol-2-yl)-5-methyl-2-oxooxazolidin-3-yl)benzonitrile], the IC50 in assay [1] was > 30 µM; in assay [4] it was > 10 µM; in assay [5], > 10 µM. Moreover, the GI50 in assay [2] was > 30 µM; in assay [3], 5 to 30 µM.

`CCc1cc2ncc(CN3CCN(CC4CCN(c5ccc(C(=O)N[C@H]6CC[C@H](Oc7ccc(C#N)c(Cl)c7C)CC6)nn5)CC4)CC3)cc2[nH]c1=O` [Compound 66, N-((1r,4r)-4-(3-Chloro-4-cyano-2-methylphenoxy)cyclohexyl)-6-(4-((4-((7-ethyl-6-oxo-5,6-dihydro-1,5-naphthyridin-3-yl)methyl)piperazin-1-yl)methyl)piperidin-1-yl)pyridazine-3-carboxamide]: the IC50 in assay [1] was 0.5 to 5 µM; in assay [4] it was > 10 µM; in assay [5], < 0.1 µM. Further, the GI50 in assay [2] and in assay [3] was ≤ 0.5 µM throughout.

Regarding `CCc1cc2ncc(CN3CCN(CC4CCN(c5ccc(C(=O)N[C@H]6CC[C@H](N(C)c7ccc(C#N)c(Cl)c7)CC6)nn5)CC4)CC3)cc2[nH]c1=O` [Compound 67, N-((1R,4R)-4-((3-Chloro-4-cyanophenyl)(methyl)amino)cyclohexyl)-6-(4-((4-((7-ethyl-6-oxo-5,6-dihydro-1,5-naphthyridin-3-yl)methyl)piperazin-1-yl)methyl)piperidin-1-yl)pyridazine-3-carboxamide], the IC50 in assay [1] is > 30 µM; in assay [4] it was > 10 µM; in assay [5] it was < 0.1 µM. For the same compound, the GI50 in assay [2] and in assay [3] was ≤ 0.5 µM each time.

In the case of `CCc1cc2ncc(CN3CCN(Cc4ccc(-c5nnc([C@H](Nc6ccc(C#N)c(Cl)c6)[C@H](C)O)o5)cc4)CC3)cc2[nH]c1=O` [Compound 68, 2-Chloro-4-(((1R,2S)-1-(5-(4-((4-((7-ethyl-6-oxo-5,6-dihydro-1,5-naphthyridin-3-yl)methyl)piperazin-1-yl)methyl)phenyl)-1,3,4-oxadiazol-2-yl)-2-hydroxypropyl)amino)benzonitrile], the IC50 in assay [1] is > 30 µM; in assay [4] it was > 10 µM; in assay [5], > 10 µM. Also, the values for the GI50 in assay [2] and in assay [3] were 5 to 30 µM and 0.5 to 5 µM, respectively.

On to `CCc1cc2ncc(CN3CCN(Cc4ccc(-c5nnc([C@H](Nc6ccc(C#N)c(Cl)c6C)[C@H](C)O)o5)cc4)CC3)cc2[nH]c1=O` [Compound 69, 2-Chloro-4-(((1R,2S)-1-(5-(4-((4-((7-ethyl-6-oxo-5,6-dihydro-1,5-naphthyridin-3-yl)methyl)piperazin-1-yl)methyl)phenyl)-1,3,4-oxadiazol-2-yl)-2-hydroxypropyl)amino)-3-methylbenzonitrile], for which the IC50 was > 30 µM in assay [1], > 10 µM in assay [4] and > 10 µM in assay [5]. The GI50 in assay [2] is 5 to 30 µM; in assay [3], 0.5 to 5 µM.

Values taken from patent US12006314B2, “Anti-cancer nuclear hormone receptor-targeting compounds” (Nuvation Bio Inc., priority 2021, dated 2024).
